Reference: paper PMC6100724, “Proteome‐wide analysis of phospho‐regulated PDZ domain interactions” (Molecular Systems Biology, 2018)
Square brackets hold non-standard residues; d marks the D form. Peptide text beside a SMILES is read from it. * marks the point of attachment. FITC = O=C1OC2(c3ccc(O)cc3Oc3cc(O)ccc32)c2ccc(NC(=S)*)cc21; pS = N[C@@H](COP(=O)(O)O)C(=O)O

Key:
Scribble PDZ1 = target: T1, Scribble PDZ1 (Homo sapiens, UniProt Q14160); assay: ITC titration, wild-type Scribble PDZ1; type: binding; conditions: unlabeled 9-mer peptides, 20 mM HEPES pH 7.4, 25°C, 50–100 μM protein in cell, 0.64–3 mM peptide in syringe, single-site fit, mean ± SD
T1 construct: human Scribble PDZ1 aa 719–829 in; made in house; host or cells: E. coli BL21 Gold (DE3)
T1 sequence (Q14160 719-829): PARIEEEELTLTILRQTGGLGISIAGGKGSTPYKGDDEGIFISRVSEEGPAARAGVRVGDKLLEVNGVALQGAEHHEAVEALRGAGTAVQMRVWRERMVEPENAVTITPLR
Text: (§1) Glutathione transferase (GST)‐tagged PDZ domains and GST for phage display selections were expressed and purified as described previously (Tonikian et al, 2008; Ivarsson et al, 2014). Protein expression for MST, ITC, and NMR experiments was as follows: Plasmids encoding His‐tagged proteins (human Scribble PDZ1 aa 719–829 in pETM‐11, human DLG1 PDZ2 aa 311–407 in a modified pRSET vector 40, or human Shank1 PDZ aa 652–761 in pETM‐33) were transformed into E. coli BL21 Gold (DE3; Agilent), and the proteins were expressed in 2YT media supplemented with appropriate antibiotic (70 or 100 μg/ml carbenicillin). Protein expression was induced upon reaching an OD600 of 0.8 by adding 1 mM isopropyl β‐D‐1‐thiogalactopyranoside (IPTG) final concentration and allowed for 4 h at 30°C.
(§2) Scribble PDZ1 for NMR experiments was expressed in M9 salt enriched with 13C D‐glucose and 15N ammonium chloride. Bacteria were harvested by centrifugation at 10,000 × g for 20 min at 4°C. The pellets were resuspended in PBS supplemented with 5 mM CaCl2, 10 μg/ml DNaseI, and 1 mg/ml lysozyme and protease inhibitor (cOmplete Mini EDTA‐free; Sigma‐Aldrich) and incubated for 1 h at 4°C. The lysates were subjected to sonication in 1‐ to 3‐s pulses for 20 pulses. […]
Peptides and proteins were dialyzed in the same beaker in 20 mM HEPES, pH 7.4. […] The results were analyzed using Origin 7 (OriginLab Corporation). […]

DLG1 PDZ2 = target: T2, DLG1 PDZ2 (Homo sapiens, UniProt Q12959); assay: MST affinity measurement, FITC-labeled peptides vs DLG1 PDZ2; type: binding; conditions: FITC-labeled peptide fixed at 25–50 nM, titrated with DLG1 PDZ2 (aa 311–407), 50 mM Tris–HCl pH 7.4, 0.1% Tween‐20, thermophoresis and T Jump signal, mean ± SD, n = 3, read-out: KD values, DLG1 PDZ2 (table row head: DLG PDZ1), MST
T2 construct: human DLG1 PDZ2 aa 311–407 in a modified pRSET vector 40; made in house; host or cells: E. coli BL21 Gold (DE3)
T2 sequence (Q12959 311-407): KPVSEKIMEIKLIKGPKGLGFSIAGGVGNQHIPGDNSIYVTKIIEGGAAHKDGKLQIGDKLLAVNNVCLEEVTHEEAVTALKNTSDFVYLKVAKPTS
Text: as §1
as §2, with “pulses. The lysate was cleared by centrifugation at 20,000 × g for 1 h.” for “pulses.”

Row | KD values, Scribble PDZ1, ITC (Scribble PDZ1; n = 3) | KD values, Scribble PDZ1, ITC (Scribble PDZ1; n = 3, listed as phosphorylated MAPK12) | Kd (DLG1 PDZ2) [µM] | Molecule
1 | no binding | no interaction was observed |  | ARVSKEpTPL [pMAPK12, p‐2 phosphorylated MAPK12 peptide]
2 |  |  | 6.1 ± 0.7 | CC[C@H](C)[C@H](NC(=O)[C@H](Cc1ccccc1)NC(=O)[C@H](COP(=O)(O)O)NC(=O)[C@H](CCCNC(=N)N)NC(=O)[C@H](CCCCN)NC(=S)Nc1ccc2c(c1)C(=O)OC21c2ccc(O)cc2Oc2cc(O)ccc21)C(=O)N[C@@H](CCC(=O)O)C(=O)N[C@@H](CO)C(=O)N[C@@H](CC(N)=O)C(=O)N[C@H](C(=O)O)C(C)C [pTANC1, FITC‐KRpSFIESNV] ({FITC}-KR[pS]FIESNV-OH)
3 |  |  | 2.7 ± 0.1 | CC[C@H](C)[C@H](NC(=O)[C@H](Cc1ccccc1)NC(=O)[C@H](CO)NC(=O)[C@H](CCCNC(=N)N)NC(=O)[C@H](CCCCN)NC(=S)Nc1ccc2c(c1)C(=O)OC21c2ccc(O)cc2Oc2cc(O)ccc21)C(=O)N[C@@H](CCC(=O)O)C(=O)N[C@@H](CO)C(=O)N[C@@H](CC(N)=O)C(=O)N[C@H](C(=O)O)C(C)C [TANC1] ({FITC}-KRSFIESNV-OH)
